Results from ChEMBL document CHEMBL4033631, “Discovery of benzothiazole derivatives as novel non-sulfamide NEDD8 activating enzyme inhibitors by target-based virtual screening” (Eur J Med Chem, 2017).
pIC50: −log10 of the molar value.

Assays:
HCT-116 = test: Antitumor activity against human HCT116 cells after 72 hrs by MTT assay; assay type: functional, cell-based; conditions: HCT-116, 72 h
U2OS = test: Antitumor activity against human U2OS cells after 72 hrs by MTT assay; assay type: functional, cell-based
Homo sapiens [1] = organism: Homo sapiens; test: Inhibition of NAE in human HCT116 cells assessed as decrease in NEDD8 level after 4 hrs by Western blot analysis; assay type: cell-based
Homo sapiens [2] = organism: Homo sapiens; test: Inhibition of NAE in human HCT116 cells assessed as decrease in NEDD8-UBC12 complex formation after 4 hrs by Western blot analysis; assay type: cell-based

SMILES	pIC50 (HCT-116)	pIC50 (U2OS)	inhibition (Homo sapiens [1])	inhibition (Homo sapiens [2])
Oc1ccc(Cl)cc1/C=N/c1ccc(-c2nc3ccccc3o2)c(O)c1	4.70	4.66		
O=C(CSc1nnc(NC(=O)COc2ccccc2)s1)Nc1ccc(Br)cc1	< 4.00	< 4.00		
Cn1c(CNC(=O)c2cccs2)nnc1SCC(=O)Nc1ccc(Cl)cc1	4.04	< 4.00		
CC(O)c1cccc(NC(=O)c2cc(Br)ccc2Br)c1 (configuration not stated)	< 4.00	< 4.00		
Cc1cc(C)cc(C(=O)Nc2nc3ccc(NC(=O)CSc4ccc(Cl)cc4)cc3s2)c1	4.19	< 4.00		
O=C(Cn1cc(F)c(=O)n(CC(=O)Nc2ccc(Br)cn2)c1=O)Nc1ccc(Br)cn1	4.95	5.29		
COc1cc(CNC(C)(C)CO)ccc1OCC(=O)Nc1ccc(C)cc1	< 4.00	< 4.00		
Cc1nc(Nc2nc3ccccc3o2)nc(C)c1C(=O)Nc1ccc(F)cc1	4.81	4.10		
O=C(Cc1nnc(NC(=O)c2ccc(Cl)cc2)s1)N/N=C/c1ccc(O)cc1	4.17	< 4.00		
COc1ccc(/C=N/NC(=O)c2ccc(NC(=O)c3ccccc3Br)cc2)cc1	< 4.00	4.03		
CCn1c(CNc2ccc(OC)cc2)nnc1SCC(=O)Nc1ccc(Cl)cc1	4.40	4.20		
O=C(Cc1nnc(NC(=O)c2ccc(Cl)cc2)s1)N/N=C/c1ccc(O)cc1O	4.42	4.39		
O=C(CSc1cccc(O)c1)Nc1ccc2nc(NC(=O)c3ccccc3)sc2c1	4.39	< 4.00		
COc1ccc(C(=O)Nc2nnc(SCC(=O)Nc3ccc(Br)cc3)s2)cc1OC	4.18	< 4.00		
Cn1c(CNC(=O)c2cccs2)nnc1SCC(=O)Nc1cccc(Cl)c1	< 4.00	< 4.00		
Cc1ccc(S(=O)(=O)Nc2nc(C)c(NC(=O)Nc3ccc(Cl)cc3)s2)cc1	4.32	4.05		
O=C(CSC1CCCCC1)Nc1ccc2nc(NC(=O)c3ccc(C(F)(F)F)cc3)sc2c1	4.68	4.91		

These reach a higher pIC50 (HCT-116). Values come first.

pIC50 (HCT-116)	pIC50 (U2OS)	SMILES	inhibition (Homo sapiens [1])	inhibition (Homo sapiens [2])
4.98	4.99	CCCC(=O)Nc1nc2ccc(NC(=O)CSc3cccc(O)c3)cc2s1		
5.11	4.91	Cc1ccc(C(=O)Nc2nc3ccc(NC(=O)CSc4cccc(O)c4)cc3s2)cc1		
5.15	4.20	O=C(CSc1cccc(O)c1)Nc1ccc2nc(NC(=O)c3cccs3)sc2c1		
5.21	5.29	O=C(CSc1cccc(O)c1)Nc1ccc2nc(NC(=O)c3ccc(F)cc3)sc2c1		
5.26	5.82	O=C(CSc1cccc(O)c1)Nc1ccc2nc(NC(=O)c3cc(Cl)cc(Cl)c3)sc2c1		
5.29	5.55	Cc1cc(C)cc(C(=O)Nc2nc3ccc(NC(=O)CSc4cccc(O)c4)cc3s2)c1		
5.37	5.75	O=C(CSc1cccc(O)c1)Nc1ccc2nc(NC(=O)c3ccc4ccccc4c3)sc2c1		
5.39	4.84	O=C(CSc1ccc(Cl)cc1)Nc1ccc2nc(NC(=O)c3ccc4ccccc4c3)sc2c1		
5.42	5.15	O=C(CSc1nc2ccccc2[nH]1)Nc1ccc2nc(NC(=O)c3ccc(C(F)(F)F)cc3)sc2c1		
5.57	4.73	O=C(CSc1ncc[nH]1)Nc1ccc2nc(NC(=O)c3ccc(C(F)(F)F)cc3)sc2c1		
5.64	4.87	O=C(CSc1ncccc1C(=O)O)Nc1ccc2nc(NC(=O)c3ccc(C(F)(F)F)cc3)sc2c1		
5.65	4.55	O=C(CSc1ncccn1)Nc1ccc2nc(NC(=O)c3ccc(C(F)(F)F)cc3)sc2c1		
5.67	5.50	Cc1ccc(C(=O)Nc2nc3ccc(NC(=O)CSc4ccc(Cl)cc4)cc3s2)cc1		
5.67	5.50	CCCC(=O)Nc1nc2ccc(NC(=O)CSc3ccc(Cl)cc3)cc2s1		
5.87	5.60	O=C(CSc1ccc(Cl)cc1)Nc1ccc2nc(NC(=O)c3ccc(F)cc3)sc2c1		
6.03	5.54	O=C(CSc1ccc(Cl)cc1)Nc1ccc2nc(NC(=O)c3ccc(C(F)(F)F)cc3)sc2c1		
6.29	6.20	O=C(CSc1cccc(O)c1)Nc1ccc2nc(NC(=O)c3ccc(C(F)(F)F)cc3)sc2c1	Dose-dependent effect	Dose-dependent effect
6.49	6.00	Cc1ccc(SCC(=O)Nc2ccc3nc(NC(=O)c4ccc(C(F)(F)F)cc4)sc3c2)c(C)c1		
6.52	5.40	O=C(CSc1ccc2ccccc2c1)Nc1ccc2nc(NC(=O)c3ccc(C(F)(F)F)cc3)sc2c1	Dose-dependent effect	Dose-dependent effect
6.72	6.80	NS(=O)(=O)OC[C@@H]1C[C@@H](n2ccc3c(N[C@H]4CCc5ccccc54)ncnc32)C[C@@H]1O [PEVONEDISTAT]		
7.00	5.91	Nc1ccc(SCC(=O)Nc2ccc3nc(NC(=O)c4ccc(C(F)(F)F)cc4)sc3c2)cc1	Dose-dependent effect	Dose-dependent effect
